Paper PMC8725448 (Journal of Cannabis Research, 2022)
“Also recorded” adds a separate entry of the source.

Key:
[1] = test system: hyperthermia-induced seizures in Scn1a^+/- mice; assay: Hyperthermia-induced seizures in Scn1a+/- mouse model of Dravet syndrome; assay type: in vivo
Description: Hyperthermia-induced seizure experiments were conducted on male and female Scn1a^+/- mice at P14-16 as previously described (Hawkins et al. [2017]). No significant sex differences were observed so males and females were combined across groups. Briefly, for CBGA methyl ester experimental animals a RET-3 rectal temperature probe was inserted 30 min after i.p. injections of vehicle or CBGA methyl ester. Mice acclimated to the probe for 5 min before hyperthermia protocol began. Olivetolic acid experimental animals acclimated to the rectal temperature probe for 5 min then received an i.p. injection of vehicle or olivetolic acid immediately before the hyperthermia protocol was initiated. Mouse core body temperature was elevated 0.5°C every 2 min until the onset of first clonic convulsion with loss of posture or until 42.5°C was reached. The dose range (10, 30, or 100 mg/kg) was chosen to provide a point of direct comparison to CBGA, which is anticonvulsant at 30 and 100 mg/kg. Seizure threshold temperatures were compared in GraphPad Prism 8.2 (LaJolla, USA) using Mantel-Cox logrank test and p < 0.05 was considered statistically significant. Following the hyperthermia-induced seizure protocol, the plasma samples were isolated as described for the pharmacokinetic analysis from a cohort of experimental mice.

[2] = target: T1, CaV3.2 (Homo sapiens, UniProt O95180); assay: Measurement of intracellular calcium, CaV3.2; assay type: cell-based; details: 10 μM; HEK293 cells expressing human CaV3.2
T1 construct: expressed in transfected cells; host or cells: Flp-In T-REx HEK (tetracycline-induced)
Description: Changes in intracellular calcium concentrations were measured in Flp-In™ T-REx™ HEK stably expressing either CaV3.1, CaV3.2, or CaV3.3 using Calcium 5 dye (Molecular Devices; Sunnyvale, USA) as previously described (Bladen et al. [2021]). Briefly, cells (120,000/well) were plated into a black, clear-bottomed poly-D-lysine coated, 96-well plate in the presence of 2 μg/mL tetracycline to induce channel expression and incubated overnight at 37°C in ambient CO2. Calcium 5 dye was diluted in HEPES-buffered low potassium Hanks Balanced Salt Solution (HBSS) at 50% of manufacturer’s recommendation. Dye solution containing probenecid (2.5 mM) was added and incubated for 60 min at 37°C in ambient CO2. Compounds were prepared as stock solutions in DMSO and diluted in HBSS with 0.01% bovine serum albumin. Compounds were applied for 5 min, then 10 mM CaCl2 was added. A FlexStation 3 Microplate reader (Molecular Devices; San Jose, USA) was used to take fluorescence readings every 2 s (excitation 485 nm, emission 525 nm). Baseline recordings were taken as the average fluorescence over 20 s preceding CaCl2 addition. Changes in fluorescence were measured as the maximal increase in fluorescence from baseline following CaCl2 addition and normalized to the response of vehicle. […]

T1 sequence (O95180 whole entry): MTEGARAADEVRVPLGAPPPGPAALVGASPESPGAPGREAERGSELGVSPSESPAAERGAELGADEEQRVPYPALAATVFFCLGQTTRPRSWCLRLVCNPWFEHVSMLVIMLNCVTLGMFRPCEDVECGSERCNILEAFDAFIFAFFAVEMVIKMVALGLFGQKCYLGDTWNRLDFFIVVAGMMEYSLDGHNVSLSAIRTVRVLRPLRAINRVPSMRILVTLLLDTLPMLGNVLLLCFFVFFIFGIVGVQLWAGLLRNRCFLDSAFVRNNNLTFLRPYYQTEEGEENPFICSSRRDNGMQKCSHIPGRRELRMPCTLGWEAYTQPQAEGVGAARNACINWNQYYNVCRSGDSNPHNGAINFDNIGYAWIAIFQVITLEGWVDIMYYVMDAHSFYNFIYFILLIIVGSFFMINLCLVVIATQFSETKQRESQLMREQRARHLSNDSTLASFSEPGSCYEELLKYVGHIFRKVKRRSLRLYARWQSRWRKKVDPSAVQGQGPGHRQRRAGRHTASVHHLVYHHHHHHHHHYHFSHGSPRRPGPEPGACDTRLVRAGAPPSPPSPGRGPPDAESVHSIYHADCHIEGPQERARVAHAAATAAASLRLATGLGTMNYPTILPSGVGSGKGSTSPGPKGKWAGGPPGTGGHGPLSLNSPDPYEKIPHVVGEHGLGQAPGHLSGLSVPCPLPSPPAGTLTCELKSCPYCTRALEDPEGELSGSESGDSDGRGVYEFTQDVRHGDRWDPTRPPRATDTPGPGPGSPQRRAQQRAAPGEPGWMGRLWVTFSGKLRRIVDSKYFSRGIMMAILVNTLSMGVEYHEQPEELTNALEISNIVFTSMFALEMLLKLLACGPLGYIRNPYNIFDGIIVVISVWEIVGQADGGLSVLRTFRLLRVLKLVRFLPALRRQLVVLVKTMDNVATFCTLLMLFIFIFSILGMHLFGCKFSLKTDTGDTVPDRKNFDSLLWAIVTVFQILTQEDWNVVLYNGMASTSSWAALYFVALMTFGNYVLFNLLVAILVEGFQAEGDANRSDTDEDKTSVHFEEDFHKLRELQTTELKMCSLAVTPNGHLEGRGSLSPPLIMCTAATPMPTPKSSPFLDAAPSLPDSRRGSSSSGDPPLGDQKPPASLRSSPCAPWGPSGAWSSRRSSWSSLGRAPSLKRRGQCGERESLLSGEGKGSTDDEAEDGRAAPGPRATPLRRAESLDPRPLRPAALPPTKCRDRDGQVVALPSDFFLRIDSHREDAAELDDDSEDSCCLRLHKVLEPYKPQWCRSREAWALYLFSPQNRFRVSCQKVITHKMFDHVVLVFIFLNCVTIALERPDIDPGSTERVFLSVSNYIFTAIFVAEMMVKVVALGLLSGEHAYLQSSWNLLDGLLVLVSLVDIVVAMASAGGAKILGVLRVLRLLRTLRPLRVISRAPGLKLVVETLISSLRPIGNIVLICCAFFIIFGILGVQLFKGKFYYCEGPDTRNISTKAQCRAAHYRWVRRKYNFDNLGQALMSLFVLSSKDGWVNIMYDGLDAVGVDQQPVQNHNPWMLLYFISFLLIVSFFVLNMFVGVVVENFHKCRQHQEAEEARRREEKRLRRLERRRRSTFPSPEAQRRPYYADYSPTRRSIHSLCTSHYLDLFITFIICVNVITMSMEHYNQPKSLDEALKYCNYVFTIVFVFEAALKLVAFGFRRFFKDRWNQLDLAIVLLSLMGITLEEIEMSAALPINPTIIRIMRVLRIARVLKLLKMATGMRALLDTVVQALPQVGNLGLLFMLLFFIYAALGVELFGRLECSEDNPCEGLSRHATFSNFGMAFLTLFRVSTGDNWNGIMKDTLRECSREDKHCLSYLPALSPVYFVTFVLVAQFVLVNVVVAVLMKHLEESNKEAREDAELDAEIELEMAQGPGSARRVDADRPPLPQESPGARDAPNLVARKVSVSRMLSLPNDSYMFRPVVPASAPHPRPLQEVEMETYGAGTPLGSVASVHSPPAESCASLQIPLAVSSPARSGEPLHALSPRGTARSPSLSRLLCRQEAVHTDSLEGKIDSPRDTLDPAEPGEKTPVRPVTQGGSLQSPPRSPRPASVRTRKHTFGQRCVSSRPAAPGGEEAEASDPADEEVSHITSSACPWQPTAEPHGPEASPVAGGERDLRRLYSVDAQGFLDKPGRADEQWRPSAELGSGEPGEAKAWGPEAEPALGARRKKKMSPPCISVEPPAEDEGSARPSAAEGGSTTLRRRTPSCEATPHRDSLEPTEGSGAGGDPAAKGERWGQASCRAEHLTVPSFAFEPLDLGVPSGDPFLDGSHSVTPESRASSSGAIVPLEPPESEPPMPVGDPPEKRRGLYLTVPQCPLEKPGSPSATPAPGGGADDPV

Row | SMILES | increase of GTCS temperature threshold ([1]; 100 mg/kg i.p., Scn1a+/- mice) | anticonvulsant effect (GTCS temperature threshold) ([1]; 100 mg/kg i.p., Scn1a+/- mice P14-16) | inhibition of CaV3.2 (change in intracellular calcium relative to vehicle) [2] | effect on hyperthermia-induced seizures ([1]; any dose tested (10, 30, 100 mg/kg i.p.), Scn1a+/- mice P14-16)
1 | CCCCCc1cc(O)cc(O)c1C(=O)O [Olivetolic acid] | approximately 0.4 °C | modest but significant anticonvulsant effect; also recorded: significantly increased the temperature threshold for GTCS | Neither CBGA methyl ester nor olivetolic acid had any effect; also recorded: ineffective | 
2 | CCCCCc1cc(O)c(C/C=C(\C)CCC=C(C)C)c(O)c1C(=O)OC [CBGA methyl ester] |  |  | Neither CBGA methyl ester nor olivetolic acid had any effect; also recorded: no effect | no effect; also recorded: ineffective
